The values that follow come from the SangsterLogP compilation.

Series [1] is described as follows: method code SF-AS, from DOI: 10.1016/s0022-5347(24)07568-2, PMID: 4149453. The following applies: pH 7.5.
Series [2] can be described thus: method code SF-AS, from PMID: 1586384.
Assay in series [3]: not given
The source holds these as a separate data set.

The nature of series [4]: method code SF-HPLC, from DOI: 10.1016/0378-5173(94)90060-4. The following applies: pH 5.0.
Series [5] is described as follows: method code SF-RC, from DOI: 10.1016/j.bmc.2015.06.036, PMID: 26145817. To be noted: pH 7.4.
Assay in series [6]: not given
This is another data set of the same source.

A short description of series [7]: method code RP-HPLC, from DOI: 10.1021/jm970292n, PMID: 9371243.
Assay in series [8]: not given
This is another data set of the same source.

Series [9] can be described thus: method code SF, from DOI: 10.1002/ps.2780350215.
Series [10] is described as follows: method code SF, from DOI: 10.1016/j.nucmedbio.2007.12.009, PMID: 18355686. To be noted: pH 7.4.
Assay in series [11]: not given
This is another data set of the same source.

Series [12] can be described thus: method code SF-GLC, from DOI: 10.1023/a:1015803202857, PMID: 2395795.
Assay in series [13]: not given
This is another data set of the same source.

Series [14] in a line: method code RP-TLC, from DOI: 10.1016/s0021-9673(03)00617-4, PMID: 12830921.
Series [15] in a line: method code SF-AS, from DOI: 10.1007/bf02857814, PMID: 1608986.
The nature of series [16]: method code SF-AS, from DOI: 10.1016/j.arabjc.2011.11.013.
Series [17] can be described thus: method code SF-HPLC, from Thijssen, W. (1981). The relationship between Log P, Rm, log k' and the constants pi and f: a study on penicillins. Eur J Med Chem, 16(5)449-452.
A short description of series [18]: method code SF-HPLC, from DOI: 10.1016/j.ejmech.2003.12.002, PMID: 15051170.
A short description of series [19]: method code SF-GR, from DOI: 10.1016/s0022-3565(25)32611-x, PMID: 7230009.
Series [20] in a line: method code SF-AS, from DOI: 10.1016/s0014-827x(98)00024-x, PMID: 9679281.
The nature of series [21]: method code SF-HPLC, from DOI: 10.1584/jpestics.11.469.
Series [22] can be described thus: method code SF-AS, from DOI: 10.1248/bpb1978.7.120, PMID: 6427444.
Assay in series [23]: not given
This is another data set of the same source.

Assay in series [24]: not given
The source holds these as a separate data set.

A short description of series [25]: method code SF-HPLC, from DOI: 10.1016/j.bmc.2009.01.040, PMID: 19208447. The following applies: pH 7.0.
The nature of series [26]: method code SF-RC, from DOI: 10.1016/j.bmc.2006.11.022, PMID: 17293116. To be noted: pH 7.4.

`CCOC(=O)CC[C@H](NC(=O)c1ccc(N(C)Cc2cnc3nc(N)nc(N)c3n2)cc1)C(=O)OCC` registered a logD in [1] of 0.98.
For the compound `CC(=O)OC(C)OC(=O)c1cn2c3c(c(N4CCN(C)CC4)c(F)cc3c1=O)OCC2C` (centres undefined), the logP in series [2] is 0.26.
Compound `CC#CC1(O)CC[C@H]2[C@@H]3CCC4=CC(=O)CCC4=C3C(c3ccc(N(C)C)cc3)C[C@@]21C` (some centres undefined) showed a logP of 4.69.
In [3], `CC(C)NCC(COc1cccc2ccccc12)OC(=O)C(C)C` (centres undefined) returned a lipophilicity (logP) of 3.52.
The compound `CCOC(=O)n1c(NC(=O)OC)nc2cc(C(=O)c3ccccc3)ccc21` gave a pH-dependent lipophilicity (logD) in [4] of 2.93.
The compound `CCN(CCOCCF)c1cc(C)nc2c(-c3ccc(Cl)cc3Cl)c(C)nn12` displayed a log distribution coefficient (logD) in series [5] of 3.8.
With `CC1CC2C3CCC4=CC(=O)CCC4C3CCC2(C)C1C(=O)CF` (centres undefined), the logP in [6] amounted to 4.66.
Turning to `CC(=O)Oc1cccc2cc3cccc(OC(C)=O)c3c(OC(C)=O)c12`, in [7], the logP amounted to 2.02.
In turn, `COC(=O)CN1CCN(C(COCc2cc(C(F)(F)F)cc(C(F)(F)F)c2)c2ccccc2)CC1` (centres undefined) yielded a logP in [8] of 3.11.
On to `CCc1cccc(CC)c1NC(=O)c1c(C)n(CCc2ccccc2)c(C)c(Br)c1=O`, for which the logP in [9] was found to be 3.63.
`CC(=O)N(Cc1ccccc1OCCF)c1cnccc1Oc1ccccc1`: the pH-dependent lipophilicity (logD) in series [10] amounted to 2.99.
In series [11], `COc1cc2c(Nc3ccc(Cl)cc3F)ncnc2cc1OCCCN1CCN(C)CC1` came in with a logP of 3.3.
`CCCOC(=O)n1c(NC(=O)OC)nc2cc(C(=O)c3ccccc3)ccc21` registered a log distribution coefficient (logD) in series [4] of 3.43.
As for `CCC(C)N(C)C(=O)c1cc2ccccc2c(-c2ccccc2Cl)n1` (centres undefined), in series [10], the logD is 4.
On to `OC(CCN1CCCCC1)(c1ccccc1)C1CCCCC1` (centres undefined), for which the log partition coefficient (logP) in series [12] was determined as 4.49.
In turn, `C=CCOc1ccccc1OCC(CNC(C)C)OC(=O)CCCC` (centres undefined) came in with a logP in [13] of 4.
`CCC12C=C(C(=O)OCCCO)n3c4c(c5ccccc53)CCN(CCC1)C42` (centres undefined) returned a log partition coefficient (logP) in [14] of 3.89.
Turning to `CCn1cc(C(=O)NC(Cc2c[nH]cn2)C(=O)OC)c(=O)c2ccc(C)nc21` (centres undefined), the logP in series [15] was determined as 0.31.
The compound `CCN(CCCCF)c1cc(C)nc2c(-c3ccc(Cl)cc3Cl)c(C)nn12` registered a logD in series [5] of 2.81.
For `O=C(CNc1ccc([N+](=O)[O-])cc1)Nc1ccc(Cl)cc1C(=O)c1ccccc1`, the logP in series [16] came out at 4.68.
Compound `Cc1onc(-c2c(Cl)cccc2Cl)c1C(=O)NC1C(=O)N2C1SC(C)(C)C2C(=O)O` (centres undefined) came in with a logP in [17] of 2.89.
Regarding `COC(=O)C(C)NP(=O)(OCC1C=CC(n2cc(C)c(=O)[nH]c2=O)O1)Oc1cc(Cl)ccc1Cl` (centres undefined), in series [18], the log partition coefficient (logP) came out at 1.41.
Still for that read-out and setting: to `COC(=O)C(C)NP(=O)(OCC1C=CC(n2cc(C)c(=O)[nH]c2=O)O1)Oc1ccc(N(C)C)cc1` (centres undefined) belongs 0.76.
Take `CC1(C)[C@H]2O[C@H]2[C@@H]2[C@]1(O)[C@H](O)[C@@H](O)C13C[C@@](C)(O)[C@@H](CC[C@@]1(O)[C@@]2(C)O)[C@@H]3O`: the logP in series [19] is -0.57.
Consider `Cc1[nH]c2ccccc2c1Cc1nnc(Nc2cccc3ccccc23)s1`, for which, in [20], the logP was 3.78.
As for `CCOC(=O)C(C)Oc1ccc(Oc2cnc3ccccc3n2)cc1` (centres undefined), the logP in [21] is 3.48.
Turning to `CO[C@@]12[C@H](COC(N)=O)C3=C(C(=O)C(C)=C(N)C3=O)N1C[C@H]1[C@@H]2N1Cc1ccccc1` (some centres undefined), the logP in [22] is 1.59.
Take `Nc1ccc(S(=O)(=O)NCC(=O)Nc2ccc(Cl)cc2C(=O)c2ccccc2)cc1`: in series [16], the logP is 3.24.
Turning to `CO[C@@]12[C@H](COC(N)=O)C3=C(C(=O)C(C)=C(N)C3=O)N1C[C@H]1[C@@H]2N1C(=O)c1ccccc1`, the logP in [22] was 1.89.
In series [3], `CC(C)NCC(COc1cccc2ccccc12)OC(=O)C1CC1` (centres undefined) showed a logP of 3.68.
With `CC1CC2C3CCC4=CC(=O)CCC4C3CCC2(C)C1C(=O)CO` (centres undefined), in series [6], the logP is 4.02.
The compound `O=C1c2c(O)cccc2Cc2cccc(-c3ccccc3)c21` registered a logP in series [7] of 3.99.
In turn, `CCn1cc(C(=O)NC(CSSCC(N)C(=O)OC)C(=O)OC)c(=O)c2ccc(C)nc21` (centres undefined) had a logP in series [15] of 0.91.
On to `S=c1[nH]nc(Cn2ccc3ccccc32)n1-c1cccc2ccccc12`, for which, in series [20], the logP came to 3.12.
Take `CN(C)CCC=C1c2ccccc2CCc2ccccc21`: the logP in series [23] was determined as 5.04.
`CC1(C)[C@@H](O)C[C@H]2[C@](C)(O)[C@@H]3CC[C@@H]4[C@@H](O)[C@@]3(C[C@@H](O)[C@@]21O)C[C@@]4(C)O` came in with a lipophilicity (logP) in series [19] of 0.27.
Take `CC(=O)OCOC(=O)c1cn2c3c(c(N4CCN(C)CC4)c(F)cc3c1=O)OCC2C` (centres undefined): the logP in series [2] stood at 0.02.
For the compound `O=C1CC[C@@](c2ccccc2)(C2CCN(Cc3ccccc3)CC2)C(=O)N1`, the log partition coefficient (logP) in series [24] was found to be 3.55.
Compound `CN(C)CCC=C1c2ccccc2CSc2ccccc21` came in with a logP in [23] of 4.49.
Turning to `CC(C(=O)OCC(O)C(O)C(O)C(O)CO)c1cccc(C(=O)c2ccccc2)c1` (centres undefined), the pH-dependent lipophilicity (logD) in [25] worked out at 0.78.
In [9], `CCCCn1c(C)cc(=O)c(C(=O)Nc2c(CC)cccc2CC)c1C` came in with a logP of 2.52.
Take `CCOC(=O)C(C)Oc1ccc(Oc2cnc3cc(C(F)(F)F)ccc3n2)cc1` (centres undefined): in series [21], the logP is 4.37.
Regarding `CN1CCN(C(COCc2cc(C(F)(F)F)cc(C(F)(F)F)c2)c2ccccc2)CC1` (centres undefined), in [8], the logP amounted to 3.2.
In the case of `Cc1onc(-c2ccccc2)c1C(=O)NC1C(=O)N2C1S(=O)C(C)(C)C2C(=O)O` (centres undefined), in series [17], the logP amounted to 1.8.
The compound `CC(C(=O)OCC(O)C(O)C(O)C(O)C=O)c1cccc(C(=O)c2ccccc2)c1` (centres undefined) registered a logD in [25] of 1.26.
With `COc1ccc2nc(-c3ccc4nc(-c5ccc(N)cc5)sc4c3)sc2c1`, the logD in [26] is 1.56.
In the case of `CC(C)=CCN1CC[C@@]2(C)c3cc(O)ccc3C[C@@H]1[C@@H]2C`, the logP in series [12] was 3.31.
For `COC(=O)CC[C@H](NC(=O)c1cc(Cl)c(N(C)Cc2cnc3nc(N)nc(N)c3n2)c(Cl)c1)C(=O)OC`, the logD in series [1] turned out to be 1.69.
Regarding `CC(=O)[C@@]1(C)CC[C@H]2[C@@H]3CCC4=CC(=O)CCC4=C3CC[C@@]21C`, the lipophilicity (logP) is 4.34.
Regarding `CN(C)CCC=C1c2ccccc2CCc2c(Cl)cccc21`, the logP in [24] was 5.55.
Consider `CCC12C=C(C(=O)OCCO)n3c4c(c5ccccc53)CCN(CCC1)C42` (centres undefined), for which the logP in series [14] stood at 3.62.
For `COc1cc2c(Nc3ccc(Cl)cc3F)ncnc2cc1OCCCN1CCOCC1`, the logP in [11] was 3.6.
`CNc1ccc(-c2nc3ccc(-c4nc5ccc(F)cc5s4)cc3s2)cc1` showed a logD in series [26] of 2.48.
For `C=CCOc1ccccc1OCC(CNC(C)C)OC(=O)/C=C/C` (centres undefined), in series [13], the logP was 3.65.
